Measurements: patent publication US9920063B2, “Melampomagnolide B derivatives” (Board of Trustees of the University of Arkansas, priority 2013, dated 2018)
“Also recorded” adds a separate entry of the source. Where two headings read alike, the source gives them in different places.

How the values were obtained:
[1] = test system: panel of 60 human cancer cell lines; test: Screen against a panel of 60 human tumor cell lines (single dose and five dose), panel and sub-panel statements; format: cell-based; details: for Outcome of initial single dose screening: single concentration 10^−5 M, more than 60% growth inhibition in at least eight cell lines of the panel; for Activity in NCI single dose screen: single concentration of 10^−5 M; for Growth inhibition compared to PTL (1) and DMAPT (2): all human tumor cell lines, with the exception of the leukemia cell line subpanel; for Antileukemic activity compared to parent compound MMB: sub-panel of human leukemia cells
AML 052308 cells = test: Antileukemic activity against AML 052308 cells in culture
Experimental: For each compound, in vitro cell culture studies were performed in which a range of concentrations (0.25-20 μM) was tested for cytotoxicity against leukemia cell lines, primary leukemia specimens and normal bone marrow controls.

M9 ENL cells [2] = details: for Reduction of cell viability: M9 ENL cells, lowest concentration tested (5, 10 and 20 μM tested); for Fold greater cytotoxicity than PTL: M9 cell lines; for EC50: M9ENL AML cell lines, 24 hours of drug exposure
Experimental: (§1) Carbamate and carbonate derivatives of MMB were also screened for activity against M9 ENL cells at concentrations of 5, 10 and 20 μM (FIG. 10). […] Additionally, succinic amide derivatives of MMB were screened for activity against M9 ENL cells at concentrations of 5, 10 and 20 μM (FIG. 11).
(§2) Ester and amide derivatives of melampomagnolide B were screened for anti-leukemic activity against M9ENL AML cell lines (FIG. 12; FIG. 14; FIG. 15; FIG. 16). For each compound, in vitro cell culture studies were performed in which a range of concentrations (0.25-20 μM) was tested for cytotoxicity against leukemia cell lines, primary leukemia specimens and normal bone marrow controls.

M9 ENL cells [3] = test: cells; details: 24 h
Experimental: as §1, §2

SMILES	Outcome of initial single dose screening [1]	EC50 (M9 ENL cells [3]) [µM]	other results
C=C1C(=O)O[C@H]2[C@H]1CC/C(COC(=O)NCCc1ccccn1)=C\CC[C@@]1(C)O[C@@H]21 [Compound 6c, ((1aR,7aS,10aS,10bS,E)-1a-methyl-8-methylene-9-oxo-1a,2,3,6,7,7a,8,9,10a,10b-decahydrooxireno[2′,3′:9,10]cyclodeca[1,2-b]furan-5-yl)methyl-(2-(pyridin-2-yl)ethyl)carbamate]	selected for a five-dose screening	–	–
C=C1C(=O)OC2C1CC/C(CO)=C\CCC1(C)OC21 (stereo not drawn) [MMB, Melampomagnolide B]	–	–	EC50 (AML 052308 cells): 16 µM
C=C1C(=O)O[C@H]2[C@H]1CC/C(COC(=O)OCCN1CCCC1)=C\CC[C@@]1(C)O[C@@H]21 [JVM 2-59]	–	–	Reduction of cell viability (M9 ENL cells [2]): greater than 50%
C=C1C(=O)O[C@H]2[C@H]1CC/C(COC(=O)c1ccc(OC)cc1OC)=C\CC[C@@]1(C)O[C@@H]21 [JVM 3-44]	–	3.5	–
C=C1C(=O)O[C@H]2[C@H]1CC/C(C(=O)N1CCN(C)CC1)=C\CC[C@@]1(C)O[C@@H]21 [JVM 3-46]	–	28	–
C=C1C(=O)OC2C1CCC(COC(=O)c1cc3cc(Cl)ccc3[nH]1)=CCCC1(C)OC21 (stereo not drawn) [BS-2-30]	selected for five dose screening	–	–
C=C1C(=O)O[C@H]2[C@H]1CC/C(COC(=S)n1ccnc1)=C\CC[C@@]1(C)O[C@@H]21 [JVM 66]	selected for a five-dose screening	–	–
C=C1C(=O)O[C@H]2[C@H]1CC/C(COC(=O)NCCN1CCOCC1)=C\CC[C@@]1(C)O[C@@H]21 [Compound 6d, ((1aR,7aS,10aS,10bS,E)-1a-methyl-8-methylene-9-oxo-1a,2,3,6,7,7a,8,9,10a,10b-decahydrooxireno[2′,3′:9,10]cyclodeca[1,2-b]furan-5-yl)-methyl(2-morpholinoethyl) carbamate]	selected for a five-dose screening	–	–
C=C1C(=O)O[C@H]2[C@H]1CC/C(COC(=O)c1cccc3ccccc13)=C\CC[C@@]1(C)O[C@@H]21 [JVM 3-38]	–	2.9	–
C=C1C(=O)O[C@H]2[C@H]1CC/C(COC(=O)CCC(=O)NCc1ccc(Cl)nc1)=C\CC[C@@]1(C)O[C@@H]21 [JVM 96]	selected for a five-dose screening	–	–
C=C1C(=O)O[C@H]2[C@H]1CC/C(CNC(=O)c1cc3ccccc3[nH]1)=C\CC[C@@]1(C)O[C@@H]21 [JVM 4-19]	–	–	Activity in NCI single dose screen [1]: did not show potent activity against leukemia cell lines; also recorded: potent activity against the majority of colon cancer, melanoma, renal cancer, prostate cancer and breast cancer cell lines tested; also recorded: moderate activity against NSCLC, CNS cancer and ovarian cancer cell lines
C=C1C(=O)O[C@H]2[C@H]1CC/C(COC(=O)CCC(=O)N1CCC(C)CC1)=C\CC[C@@]1(C)O[C@@H]21 [JVM 2-70]	selected for a five-dose screening	–	Reduction of cell viability (M9 ENL cells [2]): greater than 50%
C=C1C(=O)O[C@H]2[C@H]1CC/C(C(=O)N1CCCCC1)=C\CC[C@@]1(C)O[C@@H]21 [JVM 3-52]	–	8.3	–
C=C1C(=O)O[C@H]2[C@H]1CC/C(CNC(=O)Cc1c[nH]c3ccccc13)=C\CC[C@@]1(C)O[C@@H]21 [JVM 4-14]	–	–	Activity in NCI single dose screen [1]: potent activity against all leukemia lines tested as well as some NSCLC, colon cancer, melanoma, renal cancer and breast cancer cell lines; also recorded: moderate activity against CNS cancer and ovarian cancer
C=C1C(=O)O[C@H]2[C@H]1CC/C(COC(=O)NCCCCCCO)=C\CC[C@@]1(C)O[C@@H]21 [JVM 2-31]	selected for a five-dose screening	–	–
C=C1C(=O)O[C@H]2[C@H]1CC/C(COC(=O)c1ccc3ccccc3c1)=C\CC[C@@]1(C)O[C@@H]21 [JVM 3-36, ((1aR,7aS,10aS,10bS,E)-1a-methyl-8-methylene-9-oxo-1a,2,3,6,7,7a,8,9,10a,10b-decahydrooxireno[2′,3′:9,10]cycodeca[1,2-b]furan-5-yl)methyl 2-naphthoate]	–	1.7	Fold greater cytotoxicity than PTL (M9 ENL cells [2]): 3 fold
C=C1C(=O)O[C@H]2[C@H]1CC/C(COC(=O)NC)=C\CC[C@@]1(C)O[C@@H]21 [JVM 2-57]	selected for a five-dose screening	–	–
C=C1C(=O)O[C@H]2[C@H]1CC/C(COC(=O)OCCN1CCOCC1)=C\CC[C@@]1(C)O[C@@H]21 [JVM 2-60]	–	–	Reduction of cell viability (M9 ENL cells [2]): greater than 50%
C=C1C(=O)O[C@H]2[C@H]1CC/C(COC(=O)N1CCC(F)(F)CC1)=C\CC[C@@]1(C)O[C@@H]21 [Compound 6a, ((1aR,7aS,10aS,10bS,E)-1a-methyl-8-methylene-9-oxo-1a,2,3,6,7,7a,8,9,10a,10b-decahydrooxireno[2′,3′:9,10]cyclodeca[1,2-b]furan-5-yl)methyl-4,4-difluoropiperidine-1-carboxylate]	–	–	Growth inhibition compared to PTL (1) and DMAPT (2) [1]: generally exhibited improved growth inhibition against all human tumor cell lines when compared to PTL (1) and DMAPT (2); Antileukemic activity compared to parent compound MMB [1]: more potent than the parent compound
C=C1C(=O)O[C@H]2[C@H]1CC/C(COC(=O)N1CCN(C)CC1)=C\CC[C@@]1(C)O[C@@H]21 [JVM 2-44]	selected for a five-dose screening	–	–

SMILES	Outcome of initial single dose screening [1]	EC50 (M9 ENL cells [3]) [µM]	other results
C=C1C(=O)O[C@H]2[C@H]1CC/C(COC(=O)NCCO)=C\CC[C@@]1(C)O[C@@H]21 [JVM 2-50]	selected for a five-dose screening	–	–
C=C1C(=O)O[C@H]2[C@H]1CC/C(COC(=O)c1ccc(Cl)nc1)=C\CC[C@@]1(C)O[C@@H]21 [JVM 340]	–	–	EC50 (M9 ENL cells [2]): 11 µM
C=C1C(=O)O[C@H]2[C@H]1CC/C(COC(=O)N1CCC(F)(F)CC1)=C\CC[C@@]1(C)O[C@@H]21 [JVM 2-66]	selected for a five-dose screening	–	Reduction of cell viability (M9 ENL cells [2]): greater than 50%
C=C1C(=O)O[C@H]2[C@H]1CC/C(COC(=O)Nc1n[nH]c(SC)n1)=C\CC[C@@]1(C)O[C@@H]21 [Compound 6e, ((1aR,7aS,10aS,10bS,E)-1a-methyl-8-methylene-9-oxo-1a,2,3,6,7,7a,8,9,10a,10b-decahydrooxireno[2′,3′:9,10]cyclodeca[1,2-b]furan-5-yl)methyl-(5-(methylthio)-1H-1,2,4-triazol-3-yl)carbamate]	selected for a five-dose screening	–	Growth inhibition compared to PTL (1) and DMAPT (2) [1]: generally exhibited improved growth inhibition against all human tumor cell lines when compared to PTL (1) and DMAPT (2); Antileukemic activity compared to parent compound MMB [1]: more potent than the parent compound
C=C1C(=O)O[C@H]2[C@H]1CC/C(COC(=O)c1cc(OC)c(OC)c(OC)c1)=C\CC[C@@]1(C)O[C@@H]21 [JVM 3-22]	–	4.7	–
C=C1C(=O)O[C@H]2[C@H]1CC/C(COC(=O)NCCN1CCCC1)=C\CC[C@@]1(C)O[C@@H]21 [Compound 6b, ((1aR,7aS,10aS,10bS,E)-1a-methyl-8-methylene-9-oxo-1a,2,3,6,7,7a,8,9,10a,10b-decahydrooxireno[2′,3′:9,10]cyclodeca[1,2-b]furan-5-yl)methyl-(2-(pyrrolidin-1-yl)ethyl)carbamate]	selected for a five-dose screening	–	–
C=C1C(=O)O[C@H]2[C@H]1CC/C(C(=O)N1CCC(F)(F)CC1)=C\CC[C@@]1(C)O[C@@H]21 [JVM 3-50]	–	3.5	–
C=C1C(=O)O[C@H]2[C@H]1CC/C(COC(=O)c1ccc(Br)cc1)=C\CC[C@@]1(C)O[C@@H]21 [JVM 3-30]	–	3.3	–
C=C1C(=O)O[C@H]2[C@H]1CC/C(COC(=O)OCCCN1CCCCC1)=C\CC[C@@]1(C)O[C@@H]21 [JVM 2-26]	selected for a five-dose screening	–	–
C=C1C(=O)OC2C1CCC(COC(=O)c1cc3cc(F)ccc3[nH]1)=CCCC1(C)OC21 (stereo not drawn) [BS-2-68]	selected for five dose screening	–	–
C=C1C(=O)O[C@H]2[C@H]1CC/C(COC(=O)NCCN1CCCCC1)=C\CC[C@@]1(C)O[C@@H]21 [JVM 2-13]	selected for a five-dose screening	–	–
C=C1C(=O)O[C@H]2[C@H]1CC/C(COC(=O)OCCN(C)C)=C\CC[C@@]1(C)O[C@@H]21 [JVM 2-35]	selected for a five-dose screening	–	–
C=C1C(=O)O[C@H]2[C@H]1CC/C(C(=O)n1ccnc1C)=C\CC[C@@]1(C)O[C@@H]21 [JVM 3-57]	–	5.9	–
C=C1C(=O)O[C@H]2[C@H]1CC/C(COC(=O)c1ccc(C#N)cc1)=C\CC[C@@]1(C)O[C@@H]21 [JVM 3-39]	–	11	–
C=C1C(=O)O[C@H]2[C@H]1CC/C(C(=O)N1CCC(C)CC1)=C\CC[C@@]1(C)O[C@@H]21 [JVM 3-51]	–	12	–
C=C1C(=O)O[C@H]2[C@H]1CC/C(C(=O)Nc1n[nH]c(SC)n1)=C\CC[C@@]1(C)O[C@@H]21 [JVM 3-53, (1aR,7aS,10aS,10bS,E)-1a-methyl-8-methylene-N-(5-(methylthio)-1H-1,2,4-triazol-3-yl)-9-oxo-1a,2,3,6,7,7a,8,9,10a,10b-decahydrooxireno[2′,3′:9,10]cyclodeca[1,2-b]furan-5-carboxamide]	–	0.016	Fold greater cytotoxicity than PTL (M9 ENL cells [2]): ~30 fold
C=C1C(=O)O[C@H]2[C@H]1CC/C(COC(=O)OC)=C\CC[C@@]1(C)O[C@@H]21 [JVM 2-40]	selected for a five-dose screening	–	–
C=C1C(=O)O[C@H]2[C@H]1CC/C(COC(=O)c1cc3cc(OC)ccc3[nH]1)=C\CC[C@@]1(C)O[C@@H]21 [BS-2-01]	selected for five dose screening	–	EC50 (M9 ENL cells [2]): 2.2 µM
C=C1C(=O)OC2C1CCC(COC(=O)c1cc3ccccc3s1)=CCCC1(C)OC21 (stereo not drawn) [BS-2-65]	selected for five dose screening	–	–
C=C1C(=O)O[C@H]2[C@H]1CC/C(COC(=O)c1ccc(Cl)cc1)=C\CC[C@@]1(C)O[C@@H]21 [JVM 3-41]	–	13	–
